The results in this text go back to US20220409694A1, “POLYPEPTIDE, AND PREPARATION METHOD THEREFOR AND USE THEREOF” (SHANXI JINBO BIO-PHARMACEUTICAL CO., LTD., priority 2020, published 2022).

For one assay, the system named is 2019-nCoV pseudovirus. The conditions noted are these: for IC50: 72 h.
Assay [1] concerns cell-cell fusion mediated by the S protein of 2019-nCoV. Format: cell-based.
A further assay concerns Rs3367-CoV pseudovirus. To be noted: 72 h.
Another assay has as its system 2019-nCoV live virus. To be noted: for IC50: 72 h; for inhibitory activity relative to EK1, 2019-nCoV live virus: fold higher than EK1.
A further assay relates to SARS-CoV pseudovirus. To be noted: 72 h.
The next assay concerns WIV1-CoV pseudovirus. The conditions noted are these: 72 h.
The test system of assay [2] is SARS-CoV-2 live virus (nCoV-SH01 strain). Kind of assay: Inhibition of SARS-CoV-2 live virus on human intestinal cell line CaCO2 (viral RNA in supernatant). Format: cell-based. To be noted: CaCO2 cells, 48 hours, read-out: half inhibitory concentration, SARS-CoV-2 live virus.
The test system is the same in assay [3]. Also noted: species or system transgenic human-ACE2 mice. To be noted: in vivo.
The target in assay [4] is T1, 2019-HR1P (derived from the HR1 region of 2019-nCoV) (Severe acute respiratory syndrome coronavirus 2, UniProt P0DTC2). Nature of the assay: Native PAGE (N-PAGE) of polypeptide mixed with 2019-HR1P. It is filed as binding. To be noted: 30 μM each, 37° C. for 30 minutes.
The target of assay [5] is T1, 2019-HR1P (derived from the HR1 region of 2019-nCoV). Nature of the assay: Circular dichroism spectroscopy of polypeptide mixed with 2019-HR1P. The conditions noted are these: 10 μM, phosphate buffer pH 7.2, 4° C. It is filed as binding.

As to “ANQFNSAIGKIQDSLSSTASALGKLQDVVNQNAQALNTLVKQ (SEQ ID NO. 3) [2019-HR1P, reference compound]”, in the assay on 2019-nCoV pseudovirus, the “activity in pseudovirus inhibition experiments (in words)” value is on record as “no activity”. Further, the “inhibitory effect on cell-cell fusion mediated by the S protein of 2019-nCoV (in words)” value (“inhibitory effect” for short) in assay [1] was “no activity”.
With `CCCCCCCCCCCCCCCC(=O)NCCCC[C@H](NC(=O)CCOCCOCCOCCOCCNC(=O)CNC(=O)[C@H](CO)NC(=O)CNC(=O)[C@H](CC(C)C)NC(=O)[C@H](CCC(=O)O)NC(=O)[C@H](CCCCN)NC(=O)[C@H](CC(C)C)NC(=O)[C@H](CC(=O)O)NC(=O)[C@@H](NC(=O)[C@H](Cc1ccc(O)cc1)NC(=O)[C@H](CO)NC(=O)[C@H](CCC(=O)O)NC(=O)[C@H](CCC(=O)O)NC(=O)[C@H](CC(C)C)NC(=O)[C@H](CCCCN)NC(=O)[C@H](CCCCN)NC(=O)[C@@H](NC(=O)[C@H](C)NC(=O)[C@H](CCC(=O)O)NC(=O)[C@H](CCC(=O)O)NC(=O)[C@H](CC(C)C)NC(=O)[C@H](CCCCN)NC(=O)[C@H](CCCCN)NC(=O)[C@H](CCSC)NC(=O)[C@H](CCC(=O)O)NC(=O)[C@H](Cc1ccc(O)cc1)NC(=O)[C@H](CCC(=O)O)NC(=O)[C@H](CC(C)C)NC(=O)[C@H](CC(=O)O)NC(=O)[C@H](CC(C)C)NC(=O)[C@H](Cc1ccccc1)NC(=O)[C@@H](NC(=O)[C@@H](NC(=O)[C@H](CC(N)=O)NC(=O)[C@@H](NC(=O)[C@H](CCC(N)=O)NC(=O)[C@H](CC(=O)O)NC(=O)[C@H](CC(C)C)NC(=O)[C@@H](N)CO)[C@@H](C)CC)C(C)C)[C@@H](C)O)[C@@H](C)CC)[C@@H](C)CC)C(=O)O` [EK1-plam], the IC50 in the assay with 2019-nCoV pseudovirus was 360 nM; with Rs3367-CoV pseudovirus, 130 nM; in the assay on 2019-nCoV live virus it was 436 nM; with SARS-CoV pseudovirus, 170 nM; with WIV1-CoV pseudovirus, 100 nM. Besides, in assay [1], the “inhibitory effect” value is recorded as “very good inhibitory effect”. In the assay with 2019-nCoV live virus, the “inhibitory activity relative to EK1, 2019-nCoV live virus” value came out at 5 times.
For the molecule `CC[C@H](C)[C@H](NC(=O)[C@H](C)NC(=O)[C@H](CCC(=O)O)NC(=O)[C@H](CCC(=O)O)NC(=O)[C@H](CC(C)C)NC(=O)[C@H](CCCCN)NC(=O)[C@H](CCCCN)NC(=O)[C@H](CCSC)NC(=O)[C@H](CCC(=O)O)NC(=O)[C@H](Cc1ccc(O)cc1)NC(=O)[C@H](CCC(=O)O)NC(=O)[C@H](CC(C)C)NC(=O)[C@H](CC(=O)O)NC(=O)[C@H](CC(C)C)NC(=O)[C@H](Cc1ccccc1)NC(=O)[C@@H](NC(=O)[C@@H](NC(=O)[C@H](CC(N)=O)NC(=O)[C@@H](NC(=O)[C@H](CCC(N)=O)NC(=O)[C@H](CC(=O)O)NC(=O)[C@H](CC(C)C)NC(=O)[C@@H](N)CO)[C@@H](C)CC)C(C)C)[C@@H](C)O)C(=O)N[C@@H](CCCCN)C(=O)N[C@@H](CCCCN)C(=O)N[C@@H](CC(C)C)C(=O)N[C@@H](CCC(=O)O)C(=O)N[C@@H](CCC(=O)O)C(=O)N[C@@H](CO)C(=O)N[C@@H](Cc1ccc(O)cc1)C(=O)N[C@H](C(=O)N[C@@H](CC(=O)O)C(=O)N[C@@H](CC(C)C)C(=O)N[C@@H](CCCCN)C(=O)N[C@@H](CCC(=O)O)C(=O)N[C@@H](CC(C)C)C(=O)NCC(=O)N[C@@H](CO)C(=O)NCC(=O)N[C@@H](CO)C(=O)NCC(=O)NCCOCCOCCOCCOCCC(=O)N[C@@H](CSCC(=O)O[C@H]1CC[C@@]2(C)C(=CC[C@H]3[C@@H]4CC[C@H]([C@H](C)CCCC(C)C)[C@@]4(C)CC[C@@H]32)C1)C(=O)O)[C@@H](C)CC` [EK1-chol], the IC50 was 20 nM with 2019-nCoV pseudovirus; 30 nM in the assay on Rs3367-CoV pseudovirus; 36.5 nM in the assay with 2019-nCoV live virus; 10 nM in the assay with SARS-CoV pseudovirus; 5.5 nM in assay [2]; 40 nM in the assay on WIV1-CoV pseudovirus. In addition, in assay [1], the “inhibitory effect” value is listed as “very good inhibitory effect”. Moreover, the “inhibitory activity relative to EK1, 2019-nCoV live virus” value in the assay with 2019-nCoV live virus stood at 67 times. For the same molecule, in [3], the “SARS-CoV-2 viral titer in the intestine” value is listed as “significantly reduce”. Moreover, the “SARS-CoV-2 viral titer in the lung” value in assay [3] is “significantly reduce”.
Take `CC[C@H](C)[C@H](NC(=O)[C@H](C)NC(=O)[C@H](CCC(=O)O)NC(=O)[C@H](CCC(=O)O)NC(=O)[C@H](CC(C)C)NC(=O)[C@H](CCCCN)NC(=O)[C@H](CCCCN)NC(=O)[C@H](CCSC)NC(=O)[C@H](CCC(=O)O)NC(=O)[C@H](Cc1ccc(O)cc1)NC(=O)[C@H](CCC(=O)O)NC(=O)[C@H](CC(C)C)NC(=O)[C@H](CC(=O)O)NC(=O)[C@H](CC(C)C)NC(=O)[C@H](Cc1ccccc1)NC(=O)[C@@H](NC(=O)[C@@H](NC(=O)[C@H](CC(N)=O)NC(=O)[C@@H](NC(=O)[C@H](CCC(N)=O)NC(=O)[C@H](CC(=O)O)NC(=O)[C@H](CC(C)C)NC(=O)[C@@H](N)CO)[C@@H](C)CC)C(C)C)[C@@H](C)O)C(=O)N[C@@H](CCCCN)C(=O)N[C@@H](CCCCN)C(=O)N[C@@H](CC(C)C)C(=O)N[C@@H](CCC(=O)O)C(=O)N[C@@H](CCC(=O)O)C(=O)N[C@@H](CO)C(=O)N[C@@H](Cc1ccc(O)cc1)C(=O)N[C@H](C(=O)N[C@@H](CC(=O)O)C(=O)N[C@@H](CC(C)C)C(=O)N[C@@H](CCCCN)C(=O)N[C@@H](CCC(=O)O)C(=O)N[C@@H](CC(C)C)C(=O)O)[C@@H](C)CC` [EK1, reference compound]: the IC50 with 2019-nCoV pseudovirus amounted to 2490 nM; with Rs3367-CoV pseudovirus, 4000 nM; in the assay with SARS-CoV pseudovirus, 1890 nM; in assay [2], 573 nM; in the assay with WIV1-CoV pseudovirus, 2940 nM. The “inhibitory effect” value in [1] is “very good inhibitory effect”. For the same molecule, the “complex formation with 2019-HR1P in N-PAGE” value in assay [4] is reported as “formation of a six-helix bundle complex”. In addition, in assay [5], the “secondary structure of mixture with 2019-HR1P by circular dichroism” value is “formed a 6-HB complex”. For the same molecule, the “SARS-CoV-2 viral load in the intestine” value in assay [3] is “significantly reduce”. Also, in assay [3], the “SARS-CoV-2 viral load in the lung” value was “significantly reduce”.
